For series [1] the following is noted: cited from earlier work.
The next series concerns rat αβγENaC. Description: Amiloride-sensitive whole-cell current in Xenopus oocytes injected with αβγENaC cRNAs. It is filed as cell-based. The protocol: (§1) Human WT-CFTR, human ΔF508-CFTR, and mouse α−, β−and γ ENaC cRNAs were prepared using a cRNA synthesis kit (m-MESSAGE mMACHINE, Ambion Inc, Austin, Tex.) according to the manufacturer's protocol. cRNA concentrations were determined spectroscopically. Oocytes obtained from adult female Xenopus laevis (NASCO Fort Atkinson, Wis.) were defolliculated and maintained at 18° C. in modified Barth's saline (88 mM NaCl, 1 mM KCl, 2.4 mM NaHCO3, 15 mM Hepes pH 7.6, 0.3 mM Ca(NO3)2, 0.41 mM CaCl2, 0.82 MM MgSO4, 10 μg/ml sodium penicillin, 10 μg/ml streptomycin sulfate, 100 μg/ml gentamicin sulfate). […]
(§2) Whole-cell current measurements were made 24 to 48 hours after injection using the two-electrode voltage clamp method (GeneClamp 500 amplifier-Axon Instruments, Foster City, Calif.). […] The whole-cell currents were measured by voltage clamping the oocytes in 20 mV steps between −140 mV to +60 mV adjusted for baseline transmembrane potential. Whole cell currents (I) were digitized at 200 Hz during the voltage steps, recorded directly onto a hard disk and analyzed using pClamp 8 software (Axon Instruments, Foster City, Calif.). […]
The difference in whole-cell currents measured in the absence and presence of 10 μM amiloride was used to define the amiloride-sensitive Na^+current that was mediated by ENaC. […] Whole-cell currents were measured at −100 mV. […]

Series [2] concerns the target T1, ΔF508-CFTR (Homo sapiens, UniProt P13569, DEL508-508). Description: Two-electrode voltage clamp whole-cell current in Xenopus oocytes injected with ΔF508-CFTR cRNA. The conditions noted are these: −100 mV, FIG. 8. Set-up: expressed in transfected cells; host or cells: Xenopus laevis oocytes, cRNA injection (10 ng). It is filed as cell-based. The protocol:
as §1, §2
(§3) The difference in whole-cell currents measured in the absence and presence of 10 μM amiloride was used to define the amiloride-sensitive Na^+current that was mediated by ENaC. […]
(In general: In two-electrode clamp one electrode senses voltage and the other passes current.)

Series [3] has as its target T1, ΔF508-CFTR. The settings on record: cited from earlier work.
In a further series the target is T2, human WT-CFTR (Homo sapiens, UniProt P13569).
T2 construct: expressed in transfected cells; host or cells: Xenopus laevis oocytes, cRNA injection (10 ng)
Nature of the series: Two-electrode voltage clamp whole-cell current in Xenopus oocytes injected with WT-CFTR cRNA. It is filed as cell-based. The conditions noted are these: FIG. 9. The method, then:
as §1, §2, §3

The next series concerns the target T3, G551D (Homo sapiens, UniProt P13569, G551D).
T3 construct: host or cells: nasal epithelium of CF patients carrying G551D (endogenous protein)
The conditions noted are these: G551D patients; standard deviation 1.2 mV; cited from earlier work.

The conditions of series [4]: 16 milligrams per kilogram per day, oral; cited from earlier work.

T1 sequence (P13569 with tags, fused parts or gaps DEL508-508): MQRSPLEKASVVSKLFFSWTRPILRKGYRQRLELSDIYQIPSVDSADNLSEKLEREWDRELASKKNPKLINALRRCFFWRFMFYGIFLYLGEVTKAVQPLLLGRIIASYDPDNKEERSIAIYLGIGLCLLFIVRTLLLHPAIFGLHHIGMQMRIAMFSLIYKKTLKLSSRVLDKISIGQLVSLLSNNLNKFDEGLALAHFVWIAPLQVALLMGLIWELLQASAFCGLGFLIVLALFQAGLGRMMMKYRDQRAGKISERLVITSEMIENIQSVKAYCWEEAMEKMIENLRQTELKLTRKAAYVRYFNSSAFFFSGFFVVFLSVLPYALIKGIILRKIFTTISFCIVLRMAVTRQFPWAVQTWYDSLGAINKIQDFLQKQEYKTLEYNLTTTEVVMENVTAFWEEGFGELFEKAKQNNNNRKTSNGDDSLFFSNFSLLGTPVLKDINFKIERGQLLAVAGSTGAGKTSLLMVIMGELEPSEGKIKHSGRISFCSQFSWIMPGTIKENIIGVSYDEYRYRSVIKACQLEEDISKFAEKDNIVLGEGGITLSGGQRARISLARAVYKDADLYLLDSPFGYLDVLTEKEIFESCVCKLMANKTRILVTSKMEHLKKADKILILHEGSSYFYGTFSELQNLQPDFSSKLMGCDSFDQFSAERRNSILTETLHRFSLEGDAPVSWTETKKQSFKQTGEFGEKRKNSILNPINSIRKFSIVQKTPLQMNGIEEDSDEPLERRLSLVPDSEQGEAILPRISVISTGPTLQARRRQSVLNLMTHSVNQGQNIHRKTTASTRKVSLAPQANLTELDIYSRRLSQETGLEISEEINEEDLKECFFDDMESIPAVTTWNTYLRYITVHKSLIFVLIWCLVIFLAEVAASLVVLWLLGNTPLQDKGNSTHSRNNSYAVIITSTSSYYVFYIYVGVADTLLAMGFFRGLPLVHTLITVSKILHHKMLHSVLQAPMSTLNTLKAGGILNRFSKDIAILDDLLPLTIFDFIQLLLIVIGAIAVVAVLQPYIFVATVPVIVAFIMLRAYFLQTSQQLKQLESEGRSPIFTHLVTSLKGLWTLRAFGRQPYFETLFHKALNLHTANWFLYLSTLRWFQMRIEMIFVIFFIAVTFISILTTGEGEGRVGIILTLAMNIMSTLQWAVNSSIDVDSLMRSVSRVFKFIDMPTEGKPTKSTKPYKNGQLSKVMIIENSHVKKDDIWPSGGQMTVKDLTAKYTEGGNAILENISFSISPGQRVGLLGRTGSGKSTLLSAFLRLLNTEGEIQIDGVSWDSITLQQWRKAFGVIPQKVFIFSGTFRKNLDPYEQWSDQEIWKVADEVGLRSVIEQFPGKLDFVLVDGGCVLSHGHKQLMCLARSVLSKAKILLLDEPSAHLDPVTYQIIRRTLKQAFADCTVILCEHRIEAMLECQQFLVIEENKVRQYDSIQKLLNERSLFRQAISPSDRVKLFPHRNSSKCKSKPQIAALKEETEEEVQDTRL
T2 sequence (P13569 whole entry): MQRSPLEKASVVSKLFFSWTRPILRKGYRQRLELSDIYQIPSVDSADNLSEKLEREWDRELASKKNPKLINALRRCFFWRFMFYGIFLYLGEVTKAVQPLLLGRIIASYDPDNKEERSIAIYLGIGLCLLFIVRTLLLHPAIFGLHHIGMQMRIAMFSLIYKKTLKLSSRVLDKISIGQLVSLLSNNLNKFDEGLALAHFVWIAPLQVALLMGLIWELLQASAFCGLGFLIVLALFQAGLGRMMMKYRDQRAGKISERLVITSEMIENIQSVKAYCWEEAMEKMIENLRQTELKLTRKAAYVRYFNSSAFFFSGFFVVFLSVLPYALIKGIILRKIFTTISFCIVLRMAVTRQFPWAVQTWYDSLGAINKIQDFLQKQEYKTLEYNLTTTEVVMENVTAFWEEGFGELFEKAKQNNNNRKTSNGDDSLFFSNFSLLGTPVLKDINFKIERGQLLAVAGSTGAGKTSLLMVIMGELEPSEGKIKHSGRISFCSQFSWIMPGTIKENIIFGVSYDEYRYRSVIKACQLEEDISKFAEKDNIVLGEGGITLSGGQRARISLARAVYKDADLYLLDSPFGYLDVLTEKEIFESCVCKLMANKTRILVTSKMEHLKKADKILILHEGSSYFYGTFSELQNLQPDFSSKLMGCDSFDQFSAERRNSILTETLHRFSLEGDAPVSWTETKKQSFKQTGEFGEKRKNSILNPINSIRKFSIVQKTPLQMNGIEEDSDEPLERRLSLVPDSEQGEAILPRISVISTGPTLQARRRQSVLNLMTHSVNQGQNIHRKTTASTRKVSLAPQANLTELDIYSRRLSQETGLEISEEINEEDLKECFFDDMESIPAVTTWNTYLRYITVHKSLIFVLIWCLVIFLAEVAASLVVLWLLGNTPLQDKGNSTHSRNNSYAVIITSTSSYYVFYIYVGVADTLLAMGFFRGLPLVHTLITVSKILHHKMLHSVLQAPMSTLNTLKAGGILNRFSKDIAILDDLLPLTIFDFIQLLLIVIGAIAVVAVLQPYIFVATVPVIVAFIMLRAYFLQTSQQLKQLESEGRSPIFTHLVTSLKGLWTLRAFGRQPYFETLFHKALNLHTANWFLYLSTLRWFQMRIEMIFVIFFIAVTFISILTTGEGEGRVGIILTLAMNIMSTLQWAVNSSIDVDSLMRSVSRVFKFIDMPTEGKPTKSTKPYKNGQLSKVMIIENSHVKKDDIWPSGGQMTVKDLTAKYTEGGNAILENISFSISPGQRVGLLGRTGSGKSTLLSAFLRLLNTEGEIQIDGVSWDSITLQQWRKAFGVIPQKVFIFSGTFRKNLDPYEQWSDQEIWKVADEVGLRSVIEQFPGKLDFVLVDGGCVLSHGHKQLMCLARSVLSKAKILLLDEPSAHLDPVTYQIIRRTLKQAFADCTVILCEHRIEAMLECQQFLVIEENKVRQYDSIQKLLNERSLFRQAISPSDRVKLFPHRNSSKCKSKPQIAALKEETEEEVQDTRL
T3 sequence (P13569 whole entry G551D): as the sequence (P13569 whole entry) above, with G551D counted along it

Turning to `O=C(O)CCCc1ccccc1` [4PBA, 4-phenylbutyrate], the “commonly reported side effects in chronic therapy” value in series [1] (FDA approved use, urea cycle disorders, 20 grams per day oral) is “mild stomach upset and an occasional bad taste in the mouth”. The “side effects related to 4PBA therapy during trial” value in series [1] (pilot CF trial, 19 grams per day, one week) is listed as “no significant side effects”.

Consider `N=C(N)NC(=O)c1nc(Cl)c(N)nc1N` [amiloride], for which the “inhibition of whole-cell current by amiloride” value in the series with rat αβγENaC (10 μM amiloride, oocytes injected with αβγENaC) was “A large fraction of the current can be inhibited”.

Consider `O=c1c(-c2ccc(O)cc2)coc2cc(O)cc(O)c12` [genistein], for which the “effect on amiloride-sensitive current of genistein alone or added before forskolin/IBMX” value in the series with rat αβγENaC (ENaC alone, unpublished data) was “decreased”. For the same compound, the “ΔF508-CFTR-mediated whole-cell current after forskolin/IBMX/genistein” value on ΔF508-CFTR [2] (10 μM forskolin/100 μM IBMX/50 μM genistein, ΔF508-CFTR alone) is 1.82±0.4 μA. For the same compound, the “fold increase of forskolin/IBMX-stimulated ΔF508-CFTR-mediated current by addition of genistein” value at ΔF508-CFTR [2] (50 μM genistein added to 10 μM forskolin/100 μM IBMX) is 5 fold. The “enhancement of cAMP-dependent activation of ΔF508-CFTR” value at ΔF508-CFTR [3] is no more than 20 fold. Moreover, at ΔF508-CFTR [3] (without cAMP stimulation), the “activation of ΔF508-CFTR by the compound itself” value is on record as “does not activate ΔF508-CFTR by itself”. Also, the “WT-CFTR whole-cell current after forskolin/IBMX plus genistein” value at human WT-CFTR (10 μM forskolin/100 μM IBMX/50 μM genistein) worked out at 2.57±0.45 μA. Moreover, the “fold increase of forskolin/IBMX-stimulated WT-CFTR current by addition of genistein” value on human WT-CFTR (50 μM genistein, −100 mV) turned out to be 2 fold. Also, the “average repolarization of the NPD during genistein perfusion” value on G551D is given as 2.4 mV. The “side effects in Phase I clinical trials” value in series [4] is “no side effects noted”.

(Values after US20020115619A1, “Compositions and methods for treatment of cystic fibrosis” (priority 2000, published 2002).)
